Data taken from ChEMBL document CHEMBL1153710, “Synthesis, stereochemistry and antimicrobial studies of novel oxime ethers of aza/diazabicycles” (2009).
Converted amounts (≈) assume the structure as drawn.

Assays:
Pseudomonas aeruginosa = experiment: Antibacterial activity against Pseudomonas aeruginosa by twofold serial dilution method; format: functional
Staphylococcus aureus = experiment: Antibacterial activity against Staphylococcus aureus by twofold serial dilution method; format: functional
Salmonella enterica = experiment: Antibacterial activity against Salmonella typhi by twofold serial dilution method; format: functional, Salmonella enterica subsp. enterica serovar Typhi
Escherichia coli = experiment: Antibacterial activity against Escherichia coli by twofold serial dilution method; format: functional
Klebsiella pneumoniae = experiment: Antibacterial activity against Klebsiella pneumoniae by twofold serial dilution method; format: functional
Candida albicans = experiment: Antifungal activity against Candida albicans by twofold serial dilution method; format: functional
Candida = experiment: Antifungal activity against Candida 51 by twofold serial dilution method; format: functional
Rhizopus = experiment: Antifungal activity against Rhizopus sp. by twofold serial dilution method; format: functional
Aspergillus niger = experiment: Antifungal activity against Aspergillus niger by twofold serial dilution method; format: functional
Aspergillus flavus = experiment: Antifungal activity against Aspergillus flavus by twofold serial dilution method; format: functional

SMILES	MIC (Pseudomonas aeruginosa) [µg/mL]	MIC (Staphylococcus aureus) [µg/mL]	MIC (Salmonella enterica) [µg/mL]	MIC (Escherichia coli) [µg/mL]	MIC (Klebsiella pneumoniae) [µg/mL]	MIC (Candida albicans) [µg/mL]	MIC (Candida) [µg/mL]	MIC (Rhizopus) [µg/mL]	MIC (Aspergillus niger) [µg/mL]	MIC (Aspergillus flavus) [µg/mL]
CN1C(c2ccccc2)C2CCCC(C2=NOCc2ccccc2)C1c1ccccc1 (stereo unspecified)	100 (≈ 244 µM)	200 (≈ 487 µM)	100 (≈ 244 µM)	100 (≈ 244 µM)	200 (≈ 487 µM)	50 (≈ 122 µM)	200 (≈ 487 µM)	50 (≈ 122 µM)	200 (≈ 487 µM)	> 200
c1ccc(CON=C2C3CCCC2C(c2ccccc2)NC3c2ccccc2)cc1 (stereo unspecified)	200 (≈ 504 µM)	> 200	200 (≈ 504 µM)	100 (≈ 252 µM)	> 200	100 (≈ 252 µM)	200 (≈ 504 µM)	> 200	> 200	200 (≈ 504 µM)
COc1ccc(C2C3CCCC(C3=NOCc3ccccc3)C(c3ccc(OC)cc3)N2C)cc1 (stereo unspecified)	25 (≈ 53.1 µM)	50 (≈ 106 µM)	50 (≈ 106 µM)	25 (≈ 53.1 µM)	100 (≈ 212 µM)	25 (≈ 53.1 µM)	50 (≈ 106 µM)	50 (≈ 106 µM)	25 (≈ 53.1 µM)	100 (≈ 212 µM)
Fc1ccc(C2NC(c3ccc(F)cc3)C3C(=NOCc4ccccc4)C2C(c2ccc(F)cc2)NC3c2ccc(F)cc2)cc1 (stereo unspecified)	6.25 (≈ 10.1 µM)	12.5 (≈ 20.1 µM)	–	12.5 (≈ 20.1 µM)	25 (≈ 40.2 µM)	12.5 (≈ 20.1 µM)	25 (≈ 40.2 µM)	12.5 (≈ 20.1 µM)	25 (≈ 40.2 µM)	50 (≈ 80.4 µM)
C[C@@H]1[C@H](O)[C@@H](C)/C=C/C=C/C=C/C=C/C=C/C=C/C=C/[C@H](O[C@@H]2O[C@H](C)[C@@H](O)[C@H](N)[C@@H]2O)C[C@@H]2O[C@](O)(C[C@@H](O)C[C@@H](O)[C@H](O)CC[C@@H](O)C[C@@H](O)CC(=O)O[C@H]1C)C[C@H](O)[C@H]2C(=O)O [AMPHOTERICIN B]	–	–	–	–	–	25 (≈ 27.1 µM)	25 (≈ 27.1 µM)	25 (≈ 27.1 µM)	50 (≈ 54.1 µM)	50 (≈ 54.1 µM)
c1ccc(CON=C2C3C(c4ccccc4)NC(c4ccccc4)C2C(c2ccccc2)NC3c2ccccc2)cc1 (stereo unspecified)	100 (≈ 182 µM)	200 (≈ 364 µM)	–	100 (≈ 182 µM)	> 200	100 (≈ 182 µM)	> 200	200 (≈ 364 µM)	100 (≈ 182 µM)	200 (≈ 364 µM)
CN1C(c2ccc(Cl)cc2)C2CCCC(C2=NOCc2ccccc2)C1c1ccc(Cl)cc1 (stereo unspecified)	12.5 (≈ 26.1 µM)	12.5 (≈ 26.1 µM)	25 (≈ 52.1 µM)	50 (≈ 104 µM)	50 (≈ 104 µM)	25 (≈ 52.1 µM)	12.5 (≈ 26.1 µM)	12.5 (≈ 26.1 µM)	12.5 (≈ 26.1 µM)	100 (≈ 209 µM)
COc1ccc(C2NC(c3ccc(OC)cc3)C3C(=NOCc4ccccc4)C2C(c2ccc(OC)cc2)NC3c2ccc(OC)cc2)cc1 (stereo unspecified)	12.5 (≈ 18.7 µM)	25 (≈ 37.3 µM)	–	50 (≈ 74.6 µM)	100 (≈ 149 µM)	50 (≈ 74.6 µM)	100 (≈ 149 µM)	50 (≈ 74.6 µM)	25 (≈ 37.3 µM)	50 (≈ 74.6 µM)
Fc1ccc(C2NC(c3ccc(F)cc3)C3CCCC2C3=NOCc2ccccc2)cc1 (stereo unspecified)	25 (≈ 57.8 µM)	100 (≈ 231 µM)	50 (≈ 116 µM)	25 (≈ 57.8 µM)	50 (≈ 116 µM)	25 (≈ 57.8 µM)	100 (≈ 231 µM)	50 (≈ 116 µM)	50 (≈ 116 µM)	100 (≈ 231 µM)
Cc1ccc(C2NC(c3ccc(C)cc3)C3C(=NOCc4ccccc4)C2C(c2ccc(C)cc2)NC3c2ccc(C)cc2)cc1 (stereo unspecified)	6.25 (≈ 10.3 µM)	25 (≈ 41.3 µM)	–	25 (≈ 41.3 µM)	100 (≈ 165 µM)	25 (≈ 41.3 µM)	50 (≈ 82.5 µM)	50 (≈ 82.5 µM)	50 (≈ 82.5 µM)	25 (≈ 41.3 µM)
Fc1cccc(C2NC(c3cccc(F)c3)C3C(=NOCc4ccccc4)C2C(c2cccc(F)c2)NC3c2cccc(F)c2)c1 (stereo unspecified)	12.5 (≈ 20.1 µM)	12.5 (≈ 20.1 µM)	–	25 (≈ 40.2 µM)	50 (≈ 80.4 µM)	25 (≈ 40.2 µM)	50 (≈ 80.4 µM)	50 (≈ 80.4 µM)	50 (≈ 80.4 µM)	25 (≈ 40.2 µM)
Cc1ccc(C2C3CCCC(C3=NOCc3ccccc3)C(c3ccc(C)cc3)N2C)cc1 (stereo unspecified)	25 (≈ 57 µM)	25 (≈ 57 µM)	50 (≈ 114 µM)	100 (≈ 228 µM)	100 (≈ 228 µM)	50 (≈ 114 µM)	50 (≈ 114 µM)	50 (≈ 114 µM)	100 (≈ 228 µM)	25 (≈ 57 µM)
O=C(O)c1cn(C2CC2)c2cc(N3CCNCC3)c(F)cc2c1=O [CIPROFLOXACIN]	–	–	50 (≈ 151 µM)	25 (≈ 75.4 µM)	–	–	–	–	–	–
Clc1ccccc1C1NC(c2ccccc2Cl)C2CCCC1C2=NOCc1ccccc1 (stereo unspecified)	6.25 (≈ 13.4 µM)	12.5 (≈ 26.9 µM)	50 (≈ 107 µM)	12.5 (≈ 26.9 µM)	50 (≈ 107 µM)	12.5 (≈ 26.9 µM)	6.25 (≈ 13.4 µM)	50 (≈ 107 µM)	50 (≈ 107 µM)	12.5 (≈ 26.9 µM)
CN1C(c2ccc(F)cc2)C2CCCC(C2=NOCc2ccccc2)C1c1ccc(F)cc1 (stereo unspecified)	12.5 (≈ 28 µM)	50 (≈ 112 µM)	25 (≈ 56 µM)	12.5 (≈ 28 µM)	25 (≈ 56 µM)	12.5 (≈ 28 µM)	25 (≈ 56 µM)	25 (≈ 56 µM)	25 (≈ 56 µM)	50 (≈ 112 µM)
Cc1ccc(C2NC(c3ccc(C)cc3)C3CCCC2C3=NOCc2ccccc2)cc1 (stereo unspecified)	25 (≈ 58.9 µM)	25 (≈ 58.9 µM)	100 (≈ 236 µM)	100 (≈ 236 µM)	200 (≈ 471 µM)	50 (≈ 118 µM)	100 (≈ 236 µM)	25 (≈ 58.9 µM)	100 (≈ 236 µM)	100 (≈ 236 µM)
Clc1ccc(C2NC(c3ccc(Cl)cc3)C3C(=NOCc4ccccc4)C2C(c2ccc(Cl)cc2)NC3c2ccc(Cl)cc2)cc1 (stereo unspecified)	6.25 (≈ 9.09 µM)	25 (≈ 36.4 µM)	–	50 (≈ 72.7 µM)	50 (≈ 72.7 µM)	12.5 (≈ 18.2 µM)	50 (≈ 72.7 µM)	25 (≈ 36.4 µM)	25 (≈ 36.4 µM)	12.5 (≈ 18.2 µM)
Fc1cccc(C2NC(c3cccc(F)c3)C3CCCC2C3=NOCc2ccccc2)c1 (stereo unspecified)	25 (≈ 57.8 µM)	100 (≈ 231 µM)	100 (≈ 231 µM)	25 (≈ 57.8 µM)	100 (≈ 231 µM)	50 (≈ 116 µM)	200 (≈ 462 µM)	50 (≈ 116 µM)	100 (≈ 231 µM)	100 (≈ 231 µM)
Clc1ccc(C2NC(c3ccc(Cl)cc3)C3CCCC2C3=NOCc2ccccc2)cc1 (stereo unspecified)	12.5 (≈ 26.9 µM)	25 (≈ 53.7 µM)	25 (≈ 53.7 µM)	50 (≈ 107 µM)	100 (≈ 215 µM)	25 (≈ 53.7 µM)	50 (≈ 107 µM)	12.5 (≈ 26.9 µM)	25 (≈ 53.7 µM)	50 (≈ 107 µM)
COc1ccc(C2NC(c3ccc(OC)cc3)C3CCCC2C3=NOCc2ccccc2)cc1 (stereo unspecified)	50 (≈ 110 µM)	100 (≈ 219 µM)	50 (≈ 110 µM)	50 (≈ 110 µM)	100 (≈ 219 µM)	50 (≈ 110 µM)	50 (≈ 110 µM)	50 (≈ 110 µM)	100 (≈ 219 µM)	100 (≈ 219 µM)
